Patent US9102712B2, “Dendrimeric peptides, pharmaceutical compositions and methods of using the same” (New York University, priority 2010, dated 2015)
Converted amounts (≈) assume the structure as drawn. Square brackets hold non-standard residues; d marks the D form. Side chains are listed from the residue outwards. Peptide text beside a SMILES is read from it. * marks the point of attachment. ξ: configuration not given here. Lys(α,ε-(ArgTrp)2) = N=C(N)NCCC[C@H](N)C(=O)N[C@@H](Cc1c[nH]c2ccccc12)C(=O)NCCCC[C@H](NC(=O)[C@H](Cc1c[nH]c2ccccc12)NC(=O)[C@@H](N)CCCNC(=N)N)C(=O)*; X1 = CC(C)(C)c1cc(C(C)(C)C)c2[nH]c(C(C)(C)C)c(CC(NC(=O)[C@@H](N)CCCNC(=N)N)C(=O)*)c2c1; Trp(2,5,7-tBu3) = CC(C)(C)c1cc(C(C)(C)C)c2[nH]c(C(C)(C)C)c(C[C@H](N)C(=O)O)c2c1; ξTrp(2,5,7-tBu3) = CC(C)(C)c1cc(C(C)(C)C)c2[nH]c(C(C)(C)C)c(CC(N)C(=O)O)c2c1; βAla = NCCC(=O)O

Assays:
B. Subtilis = format: cell-based; settings: 18 h
MRSA = format: cell-based, Methicillin-resistant Staphylococcus aureus; settings: 18 h
Description: (§1) The antibacterial activity of each dendrimer peptide was tested by following standard broth microdilution protocols recommended by the National Committee for Clinical Laboratory Standard (NCCLS 2004). Antibacterial testing was carried out on gram-negative bacteria E. coli (D31) and gram-positive bacteria S. aureus in liquid media Mueller Hinton (MH) Brooth according to literature procedures. Dendrimers were dissolved in PBS buffer (high salt, 150 mM NaCl; low salt, 75 mM NaCl), pH 7.4 to make series of stocks of 2-fold dilution. Cultures were grown overnight on Mueller Hinton (MH) agar plates, and 3 to 5 uniform colonies of each organism were transferred with an inoculating loop to test tubes containing MH broth, and incubated at 37° C. overnight, then diluted until the turbidity matched that of the 0.5 McFarland standard (approximately 1.5×10^8 cells/mL). The resulting solutions were further diluted to give approximately 2×10^4-2×10^5 CFU/mL. 100 μL of the bacterial inoculums were incubated in 96-well plates with varying volumes of stock solution and PBS buffer to bring the total volume to 200 μL. Solutions containing the same volumes of PBS buffer and MH Broth, with and without bacteria were used as controls. After these plates were incubated with shaking for 18 hrs at 37° C. to ensure the cultures had reached log phase growth, the absorbance readings were recorded at a wavelength of 600 nm using a Absorbance Microplate Reader BIO-TEK ELX800. The 18-hour absorbance data were used to calculate the percent inhibition for each test condition. All assays were carried out in triplicate. The experimental data were fitted to sigmoidal dose-response curves using GraphPad Prism (GraphPad Software Inc., San Diego, Calif., USA).

E. coli (D31) = test: Antibacterial broth microdilution, E. coli; format: cell-based; settings: for IC50 E. Coli D31 / E. Coli IC50: 50% inhibition of growth, MH broth, 18 hrs at 37° C.; for IC50 E. Coli D31: Table 3; for E. Coli IC50: Table 1; for E. Coli HI (hemolytic index): HI=HD50/IC50, E. coli
Description: as §1

fresh sheep RBC = format: cell-based; settings: red cells of sheep, 1 h
Description: Hemolytic activity of dendrimeric compounds were assessed on fresh sheep RBC (Fitzgerald, Inc., MA). Dendrimer concentrations corresponding to 50% hemolysis were used as hemolytic dose (HD50) determined from dose-response curve. The fresh sheep RBC was washed with PBS buffer (thrice) and aliquots of cell suspension were mixed in eppendorf tubes with varying volumes of stocks and buffer for a total volume of 400 μL. These tubes were incubated at 37° C. for 1 hr, and then spun down at 3,000 rpm for 5 mins. The resulting supernatant was trasferred to a 96-well plate and the absorbances at 540 nm were measured in an Absorbance Microplate Reader BIO-TEK ELX800. Zero hemolysis and 100% hemolysis controls were obtained by incubating the cells with buffer and 1% Triton X-100, respectively. Hemolytic index (HI) was defined as HI=HD50/IC50 (Table 1 and 3).

S. aureus = format: cell-based; settings: for S. Aureus IC50: 18 h; for S. Aureus HI (hemolytic index): HI=HD50/IC50, S. aureus
Description: as §1

SMILES	IC50 B. Subtilis (B. Subtilis) [µg/mL]	IC50 MRSA (MRSA) [µg/mL]	IC50 E. Coli D31 (E. coli (D31)) [µg/mL]	HD50 Hemolysis (fresh sheep RBC) [µg/mL]	S. Aureus IC50 (S. aureus) [µg/mL]	E. Coli IC50 (E. coli (D31)) [µg/mL]	Hemolysis HD50 (fresh sheep RBC) [µg/mL]	S. Aureus HI (hemolytic index) (S. aureus)	E. Coli HI (hemolytic index) (E. coli (D31))
N=C(N)NCCC[C@H](NC(=O)[C@H](Cc1c[nH]c2ccccc12)NC(=O)[C@@H](N)CCCNC(=N)N)C(=O)NCCCC[C@H](NC(=O)[C@H](CCCNC(=N)N)NC(=O)[C@H](Cc1c[nH]c2ccccc12)NC(=O)[C@@H](N)CCCNC(=N)N)C(=O)NCCC(N)=O [Dendrimer 2D-04, reference compound] (H-RWRK([Arg-Trp-Arg])[βAla]-NH2)	6.1 (≈ 5.03 µM)	56.6 (≈ 46.6 µM)	6.8 (≈ 5.6 µM)	3428					
N=C(N)NCCC[C@H](N)C(=O)N[C@@H](Cc1c[nH]c2ccccc12)C(=O)NCCCN(CCCCN(CCCNC(=O)[C@H](Cc1c[nH]c2ccccc12)NC(=O)[C@@H](N)CCCNC(=N)N)CCCNC(=O)[C@H](Cc1c[nH]c2ccccc12)NC(=O)[C@@H](N)CCCNC(=N)N)CCCNC(=O)[C@H](Cc1c[nH]c2ccccc12)NC(=O)[C@@H](N)CCCNC(=N)N [POPAM-(WR)4, POPAM-(WR—NH2)3]					0.37 ± 0.13	0.57 ± 0.12	291		
CC(C)(C)c1cc(C(C)(C)C)c2[nH]c(C(C)(C)C)c(CC(NC(=O)[C@@H](N)CCCNC(=N)N)C(=O)N[C@@H](CCCNC(=N)N)C(=O)NCCCC[C@H](NC(=O)[C@H](CCCCNC(=O)[C@H](CCCNC(=N)N)NC(=O)[C@H](Cc3c[nH]c4ccccc34)NC(=O)[C@@H](N)CCCNC(=N)N)NC(=O)[C@H](CCCNC(=N)N)NC(=O)[C@H](Cc3c[nH]c4ccccc34)NC(=O)[C@@H](N)CCCNC(=N)N)C(=O)NCCC(N)=O)c2c1 (stereo partly drawn) [Dendrimer 3D-16] (H-RWRK([Arg-Trp-Arg])K([Arg-X1])[βAla]-NH2)	0.9 (≈ 0.448 µM)	5.2 (≈ 2.59 µM)	0.4 (≈ 0.199 µM)	201					
N=C(N)NCCC[C@H](N)C(=O)N[C@@H](Cc1c[nH]c2ccccc12)C(=O)NCCCC[C@H](NC(=O)[C@H](Cc1c[nH]c2ccccc12)NC(=O)[C@@H](N)CCCNC(=N)N)C(=O)NCCCC[C@H](NC(=O)[C@H](CCCCNC(=O)[C@H](Cc1c[nH]c2ccccc12)NC(=O)[C@@H](N)CCCNC(=N)N)NC(=O)[C@H](Cc1c[nH]c2ccccc12)NC(=O)[C@@H](N)CCCNC(=N)N)C(=O)NCCC(N)=O [(RW)4D, reference compound] (H-RWK([Trp-Arg])K(Lys(α,ε-(ArgTrp)2))[βAla]-NH2; N-terminus and C-terminus assumed)					16		1400	88	310
CC(C)(C)c1cc(C(C)(C)C)c2[nH]c(C(C)(C)C)c(CC(NC(=O)[C@@H](N)CCCNC(=N)N)C(=O)N[C@@H](CCCNC(=N)N)C(=O)NCCCC[C@H](NC(=O)[C@H](CCCNC(=N)N)NC(=O)C(Cc3c(C(C)(C)C)[nH]c4c(C(C)(C)C)cc(C(C)(C)C)cc34)NC(=O)[C@@H](N)CCCNC(=N)N)C(=O)N[C@@H](CCCCNC(=O)[C@H](CCCNC(=N)N)NC(=O)[C@H](Cc3c[nH]c4ccccc34)NC(=O)[C@@H](N)CCCNC(=N)N)C(=O)NCCC(N)=O)c2c1 (stereo partly drawn) [Dendrimer 3D-26] (H-R[ξTrp(2,5,7-tBu3)]RK([Arg-X1])K([Arg-Trp-Arg])[βAla]-NH2)	1.4 (≈ 0.643 µM)	0.5 (≈ 0.23 µM)	1.4 (≈ 0.643 µM)	33					
N=C(N)NCCC[C@H](N)C(=O)N[C@@H](Cc1c[nH]c2ccccc12)C(=O)NCCN(CCNC(=O)[C@H](Cc1c[nH]c2ccccc12)NC(=O)[C@@H](N)CCCNC(=N)N)CCNC(=O)[C@H](Cc1c[nH]c2ccccc12)NC(=O)[C@@H](N)CCCNC(=N)N [TAEA-(WR)3, TAEA-(WR—NH2)3]					0.97 ± 0.02	2.07 ± 0.22	3073		
NCCCC[C@H](N)C(=O)N[C@@H](Cc1c[nH]c2ccccc12)C(=O)NCCN(CCNC(=O)[C@H](Cc1c[nH]c2ccccc12)NC(=O)[C@@H](N)CCCCN)CCNC(=O)[C@H](Cc1c[nH]c2ccccc12)NC(=O)[C@@H](N)CCCCN [TAEA-(WK)3, TAEA-(WK—NH2)3]					4.12 ± 0.58	6.87 ± 0.01	5423	1316	789
N=C(N)NCCC[C@H](NC(=O)[C@@H](N)Cc1c[nH]c2ccccc12)C(=O)NCCCC[C@H](NC(=O)[C@H](CCCCNC(=O)[C@H](CCCNC(=N)N)NC(=O)[C@@H](N)Cc1c[nH]c2ccccc12)NC(=O)[C@H](CCCNC(=N)N)NC(=O)[C@@H](N)Cc1c[nH]c2ccccc12)C(=O)NCCC(N)=O [Dendrimer 3D-03, reference compound] (H-WRK([Arg-Trp])K([Arg-Trp])[βAla]-NH2)	14.3 (≈ 10.4 µM)	>100	12.1 (≈ 8.82 µM)	3197					
CC(C)(C)c1cc(C(C)(C)C)c2[nH]c(C(C)(C)C)c(CC(NC(=O)[C@@H](N)CCCNC(=N)N)C(=O)N[C@@H](CCCNC(=N)N)C(=O)NCCCC[C@H](NC(=O)[C@H](CCCNC(=N)N)NC(=O)C(Cc3c(C(C)(C)C)[nH]c4c(C(C)(C)C)cc(C(C)(C)C)cc34)NC(=O)[C@@H](N)CCCNC(=N)N)C(=O)NCCC(N)=O)c2c1 (stereo partly drawn) [Dendrimer 2D-24]	0.8 (≈ 0.516 µM)	0.2 (≈ 0.129 µM)	0.5 (≈ 0.323 µM)	48					
CC(C)(C)c1cc(C(C)(C)C)c2[nH]c(C(C)(C)C)c(C[C@H](N)C(=O)N[C@@H](CCCNC(=N)N)C(=O)NCCCC[C@H](NC(=O)[C@H](CCCNC(=N)N)NC(=O)[C@@H](N)Cc3c(C(C)(C)C)[nH]c4c(C(C)(C)C)cc(C(C)(C)C)cc34)C(=O)N[C@@H](CCCCNC(=O)[C@H](CCCNC(=N)N)NC(=O)[C@@H](N)Cc3c[nH]c4ccccc34)C(=O)NCCC(N)=O)c2c1 [Dendrimer 3D-23] (H-[Trp(2,5,7-tBu3)]RK([Arg-Trp(2,5,7-tBu3)])K([Arg-Trp])[βAla]-NH2)	2.1 (≈ 1.23 µM)	0.7 (≈ 0.41 µM)	2.4 (≈ 1.4 µM)	99					
N=C(N)NCCC[C@H](NC(=O)[C@H](Cc1c[nH]c2ccccc12)NC(=O)[C@@H](N)CCCNC(=N)N)C(=O)NCCCC[C@H](NC(=O)[C@H](CCCCNC(=O)[C@H](CCCNC(=N)N)NC(=O)[C@H](Cc1c[nH]c2ccccc12)NC(=O)[C@@H](N)CCCNC(=N)N)NC(=O)[C@H](CCCNC(=N)N)NC(=O)[C@H](Cc1c[nH]c2ccccc12)NC(=O)[C@@H](N)CCCNC(=N)N)C(=O)NCCC(N)=O [Dendrimer 3D-06, reference compound] (H-RWRK([Arg-Trp-Arg])K([Arg-Trp-Arg])[βAla]-NH2)	1.9 (≈ 1.03 µM)	17.3 (≈ 9.4 µM)	1.8 (≈ 0.978 µM)	2336					
CC(C)(C)c1cc(C(C)(C)C)c2[nH]c(C(C)(C)C)c(C[C@H](N)C(=O)N[C@@H](CCCNC(=N)N)C(=O)NCCCC[C@H](NC(=O)[C@H](CCCCNC(=O)[C@H](CCCNC(=N)N)NC(=O)[C@@H](N)Cc3c[nH]c4ccccc34)NC(=O)[C@H](CCCNC(=N)N)NC(=O)[C@@H](N)Cc3c[nH]c4ccccc34)C(=O)NCCC(N)=O)c2c1 [Dendrimer 3D-13] (H-WRK([Arg-Trp])K([Arg-Trp(2,5,7-tBu3)])[βAla]-NH2)	1.9 (≈ 1.23 µM)	1.7 (≈ 1.1 µM)	1.0 (≈ 0.649 µM)	270					
N=C(N)NCCC[C@H](NC(=O)[C@@H](N)Cc1c[nH]c2ccccc12)C(=O)NCCCC[C@H](NC(=O)[C@H](CCCNC(=N)N)NC(=O)[C@@H](N)Cc1c[nH]c2ccccc12)C(=O)NCCCC[C@H](NC(=O)[C@H](CCCCNC(=O)[C@H](CCCNC(=N)N)NC(=O)[C@@H](N)Cc1c[nH]c2ccccc12)NC(=O)[C@H](CCCNC(=N)N)NC(=O)[C@@H](N)Cc1c[nH]c2ccccc12)C(=O)NCCC(N)=O [Dendrimer 4D-04, reference compound]	4.2 (≈ 2.28 µM)	14.6 (≈ 7.93 µM)	4.5 (≈ 2.44 µM)	1563					
